Source: US10758484B2, “CED of SN-38-loaded micelles against brain tumor” (Nippon Kayaku Co., Ltd., priority 2014, dated 2020)

How the values were obtained:
[1] = tested on: 9L orthotopic brain tumor model; assay: Survival study, 9L orthotopic brain tumor model; format: in vivo, rat; conditions: rats with 9L tumor, 0.04 mg by single CED on day 5 after implantation
Protocol: Fischer 344 rats were used for the 9L model, and F344/NJc1-rnu/rnu (nude) rats were used for the U87MG model. […] Briefly, 9L and U87MG cells were harvested using trypsin-EDTA following washing once with complete medium, and resuspended in cold phosphate-buffered saline (PBS) for implantation. A cell suspension containing 1×10^4 (9L) or 2×10^5 (U87MG) cells per 10 μl of PBS was used for implantation into the striatum region of rat brains. Under deep isoflurane anesthesia, rats were placed in a small animal stereotactic frame (David Kopf Instruments, Tujunga, Calif.). […] Five microliters of cell suspension were injected at a depth of 4.5 mm from the brain surface. After a wait of 2 minutes, another 5 μl were injected at a depth of 4 mm. After a final wait of 2 minutes, the needle was removed, and the wound was closed with sutures.
Fourteen rats with implanted U87MG tumor cells were randomly divided into two groups on day 5 after tumor cell implantation and treated as follows: (1) CED of PBS (n=7) as a control, and (2) CED of NK012 (n=7). […] All other rats were monitored daily for survival. Survival was compared between the treatment groups using a log-rank test. Estimated survival was expressed as a Kaplan-Meier curve.

[2] = Distribution in normal rat brain after CED, fluorescence microscopy; conditions: for local brain tissue damage: free SN-38 infused by CED into normal rat brain
Protocol: Serial coronal tissue sections (20 μm thickness) were prepared using Tissue-Tek Cryo3 (Sakura Finetek USA, Inc., Torrance, Calif.), and frozen sections were examined under a fluorescence microscope, BIOREVO BZ9000 (Keyence, Osaka, Japan), at an excitation wavelength of 377 nm and an emission wavelength 447 nm to evaluate the distribution of NK012 within the tissues. Image data were recorded using BZ-II Analyzer 1.10 software (Keyence).
Animals were euthanized immediately after infusion and serial sections were obtained using a cryostat (20 μm thickness; 1 mm interval).

## 7-ethyl-10-hydroxy-camptothecine [SN-38]
[1]
  median survival: 28 days
  survival range after tumor cell implantation: 24 to 30 days
[2]; CED into normal rat striatum, fluorescence of SN-38
  distribution after CED (description): quite restricted
[2]
  local brain tissue damage: severe local tissue damage
[2]; listed as free SN-38
  local brain tissue damage: increased local brain damage
